Test results reported in US20240051970A1, “COMPOUNDS AND COMPOSITIONS FOR TREATING CONDITIONS ASSOCIATED WITH STING ACTIVITY” (IFM Due, Inc., priority 2020, published 2024).

Biological target: T1, hSTING (Homo sapiens, UniProt Q86WV6, G230A/H232R/R293Q/R71H)
T1 construct: host or cells: THP1-Dual KO-IFNAR2 cells
Test: STING reporter assay (luciferase) in THP1-Dual KO-IFNAR2 cells activated with 2'3'cGAMP
Format: cell-based
Conditions: 15 μM 2'3'cGAMP, 24 h
Experimental: STING pathway activation by the compounds described herein was measured using THP1-Dual™ cells (KO-IFNAR2).
THP1-Dual™ KO-IFNAR2 Cells (obtained from invivogen) were maintained in RPMI, 10% FCS, 5 ml P/S, 2 mM L-glut, 10 mM Hepes, and 1 mM sodium pyruvate. Compounds were spotted in empty 384 well tissue culture plates (Greiner 781182) by Echo for a final concentration of 0.0017-100 μM. Cells were plated into the TC plates at 40 μL per well, 2×10E6 cells/mL. For activation with STING ligand, 2′3′cGAMP (MW 718.38, obtained from Invivogen), was prepared in Optimem media.
The following solutions were prepared for each 1×384 plate: • Solution A: 2 mL Optimem with one of the following stimuli: • 60 μL of 10 mM 2′3′cGAMP 4 150 μM stock • Solution B: 2 mL Optimem with 60 μL Lipofectamine 2000 4 Incubate 5 min at RT
2 mL of solution A and 2 ml Solution B was mixed and incubated for 20 min at room temperature (RT). 20 μL of transfection solution (A+B) was added on top of the plated cells, with a final 2′3′cGAMP concentration of 15 μM. The plates were then centrifuged immediately at 340 g for 1 minute, after which they were incubated at 37° C., 5% CO2, >98% humidity for 24 h. Luciferase reporter activity was then measured. EC50 values were calculated by using standard methods known in the art.
Luciferase reporter assay: 10 μL of supernatant from the assay was transferred to white 384-plate with flat bottom and squared wells. One pouch of QUANTI-Luc™ Plus was dissolved in 25 mL of water. 100 μL of QLC Stabilizer per 25 mL of QUANTI-Luc™ Plus solution was added. 50 μL of QUANTI-Luc™ Plus/QLC solution per well was then added. Luminescence was measured on a Platereader (e.g., Spectramax I3X (Molecular Devices GF3637001)).
Luciferase reporter activity was then measured. EC50 values were calculated by using standard methods known in the art.

T1 sequence (Q86WV6 whole entry R71H/G230A/H232R/R293Q): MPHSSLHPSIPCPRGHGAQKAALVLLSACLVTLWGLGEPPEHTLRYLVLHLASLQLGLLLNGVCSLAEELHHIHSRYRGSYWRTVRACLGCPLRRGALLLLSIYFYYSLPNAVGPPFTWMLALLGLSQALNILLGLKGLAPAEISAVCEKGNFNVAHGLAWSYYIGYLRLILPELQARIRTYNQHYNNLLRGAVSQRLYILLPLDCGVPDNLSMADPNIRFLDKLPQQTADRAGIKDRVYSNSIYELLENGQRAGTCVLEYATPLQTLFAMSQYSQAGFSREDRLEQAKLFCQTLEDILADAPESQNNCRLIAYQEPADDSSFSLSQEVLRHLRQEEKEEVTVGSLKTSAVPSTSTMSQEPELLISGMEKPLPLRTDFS

**Q.** `COCCn1c(Nc2cc(Cl)c3cc[nH]c3c2)nc2cc(Cl)c(Cl)cc21` [Compound 104, 5,6-dichloro-N-(4-chloro-1H-indol-6-yl)-1-(2-methoxyethyl)-1H-benzo[d]imidazol-2-amine] was tested. Which EC50 did it give?
**A.** 1000 to 5000 nM

**Q.** With `Fc1cc(Nc2nc3cc(Cl)c(Cl)cc3[nH]2)cc2[nH]ccc12` [Compound 105, 5,6-dichloro-N-(4-fluoro-1H-indol-6-yl)-1H-benzo[d]imidazol-2-amine] as the molecule, how does the EC50 read?
**A.** 200 to 1000 nM

**Q.** How did the EC50 turn out when `Clc1ccc2c(c1)nc(Nc1cc(Cl)c3cc[nH]c3c1)n2Cc1ccccc1` [Compound 106, 1-benzyl-5-chloro-N-(4-chloro-1H-indol-6-yl)-1H-benzo[d]imidazol-2-amine] was run?
**A.** 1000 to 5000 nM

**Q.** Which EC50 does the source give for `Clc1ccc2c(c1)nc(Nc1cc(Cl)c3cc[nH]c3c1)n2CCc1ccccc1` [Compound 107, 5-chloro-N-(4-chloro-1H-indol-6-yl)-1-phenethyl-1H-benzo[d]imidazol-2-amine] here?
**A.** 1000 to 5000 nM

**Q.** Which EC50 does the source give for `Clc1cc(Nc2nc3ccc(C4CCC4)cc3[nH]2)cc2[nH]ccc12` [Compound 108, N-(4-chloro-1H-indol-6-yl)-6-cyclobutyl-1H-benzo[d]imidazol-2-amine] here?
**A.** 200 to 1000 nM

**Q.** Which EC50 does the source give for `Cn1c(Nc2cc(Cl)c3cc[nH]c3c2)nc2cc(Cl)c(Cl)cc21` [Compound 109, 5,6-dichloro-N-(4-chloro-1H-indol-6-yl)-1-methyl-1H-benzo[d]imidazol-2-amine] here?
**A.** 200 to 1000 nM

**Q.** With `Clc1cc2nc(Nc3cc(Cl)c4cc[nH]c4c3)[nH]c2cc1Cl` [Compound 110, 5,6-dichloro-N-(4-chloro-1H-indol-6-yl)-1H-benzo[d]imidazol-2-amine] as the molecule, how does the EC50 read?
**A.** 40 to 200 nM

**Q.** How did the EC50 turn out when `FC(F)(F)c1cc2[nH]c(Nc3cc(Cl)c4cc[nH]c4c3)nc2cn1` [Compound 111, N-(4-chloro-1H-indol-6-yl)-6-(trifluoromethyl)-1H-imidazo[4,5-c]pyridin-2-amine] was run?
**A.** 200 to 1000 nM

**Q.** `FC(F)(F)c1cnc2nc(Nc3cc(Cl)c4cc[nH]c4c3)[nH]c2c1` [Compound 112, N-(4-chloro-1H-indol-6-yl)-6-(trifluoromethyl)-1H-imidazo[4,5-b]pyridin-2-amine] was tested. Which EC50 did it give?
**A.** 200 to 1000 nM

**Q.** Which EC50 does the source give for `Cn1c(Nc2cc(Cl)c3cc[nH]c3c2)nc2cc(C(F)(F)F)ccc21` [Compound 113, N-(4-chloro-1H-indol-6-yl)-1-methyl-5-(trifluoromethyl)-1H-benzo[d]imidazol-2-amine] here?
**A.** 1000 to 5000 nM

**Q.** Which EC50 does the source give for `Cn1c(Nc2ccc3cc[nH]c3c2)nc2ccc(C(F)(F)F)cc21` [Compound 114, N-(1H-indol-6-yl)-1-methyl-6-(trifluoromethyl)-1H-benzo[d]imidazol-2-amine] here?
**A.** 1000 to 5000 nM

**Q.** With `Fc1ccc2nc(Nc3cc(Cl)c4cc[nH]c4c3)[nH]c2c1` [Compound 115, N-(4-chloro-1H-indol-6-yl)-6-fluoro-1H-benzo[d]imidazol-2-amine] as the molecule, how does the EC50 read?
**A.** 200 to 1000 nM

**Q.** Which EC50 does the source give for `N#Cc1ccc2[nH]c(Nc3cc(Cl)c4cc[nH]c4c3)nc2c1` [Compound 116, 2-((4-chloro-1H-indol-6-yl)amino)-1H-benzo[d]imidazole-5-carbonitrile] here?
**A.** 200 to 1000 nM

**Q.** With `Clc1ccc2[nH]c(Nc3cc(Cl)c4cc[nH]c4c3)nc2c1` [Compound 117, 5-chloro-N-(4-chloro-1H-indol-6-yl)-1H-benzo[d]imidazol-2-amine] as the molecule, how does the EC50 read?
**A.** 200 to 1000 nM

**Q.** With `Cc1ccc2[nH]c(Nc3cc(Cl)c4cc[nH]c4c3)nc2c1` [Compound 118, N-(4-chloro-1H-indol-6-yl)-5-methyl-1H-benzo[d]imidazol-2-amine] as the molecule, how does the EC50 read?
**A.** 200 to 1000 nM

**Q.** `Clc1cc(Nc2nc3cc(Br)ccc3[nH]2)cc2[nH]ccc12` [Compound 119, 5-bromo-N-(4-chloro-1H-indol-6-yl)-1H-benzo[d]imidazol-2-amine] was tested. Which EC50 did it give?
**A.** 200 to 1000 nM

**Q.** For `FC(F)(F)c1ccc2[nH]c(Nc3cc(Cl)c4cc[nH]c4c3)nc2c1` [Compound 120, N-(4-chloro-1H-indol-6-yl)-5-(trifluoromethyl)-1H-benzo[d]imidazol-2-amine], which EC50 is on record?
**A.** 200 to 1000 nM

**Q.** How did the EC50 turn out when `Cn1c(Nc2ccc3cc[nH]c3c2)nc2cc(C(F)(F)F)ccc21` [Compound 121, N-(1H-indol-6-yl)-1-methyl-5-(trifluoromethyl)-1H-benzo[d]imidazol-2-amine] was run?
**A.** 200 to 1000 nM

**Q.** With `CCn1c(Nc2ccc3cc[nH]c3c2)nc2cc(C(F)(F)F)ccc21` [Compound 122, 1-ethyl-N-(1H-indol-6-yl)-5-(trifluoromethyl)-1H-benzo[d]imidazol-2-amine] as the molecule, how does the EC50 read?
**A.** 1000 to 5000 nM

**Q.** `FC(F)(F)c1ccc2[nH]c(Nc3ccc4cc[nH]c4c3)nc2c1` [Compound 123, N-(1H-indol-6-yl)-5-(trifluoromethyl)-1H-benzo[d]imidazol-2-amine] was tested. Which EC50 did it give?
**A.** 200 to 1000 nM

**Q.** With `CC(C)(C)C1CCC(c2ccc3[nH]c(Nc4cc(Cl)c5cc[nH]c5c4)nc3c2)CC1` (stereo not drawn) [Compound 136, 5-(4-tert-butylcyclohexyl)-N-(4-chloro-1H-indol-6-yl)-1H-1,3-benzodiazol-2-amine] as the molecule, how does the EC50 read?
**A.** 1000 to 5000 nM

**Q.** How did the EC50 turn out when `CCOC(=O)C1CCC(c2ccc3[nH]c(Nc4cc(Cl)c5cc[nH]c5c4)nc3c2)CC1` (stereo not drawn) [Compound 138, ethyl 4-{2-[(4-chloro-1H-indol-6-yl)amino]-1H-1,3-benzodiazol-5-yl}cyclohexane-1-carboxylate] was run?
**A.** 1000 to 5000 nM

**Q.** For `OC1CCC(c2ccc3[nH]c(Nc4cc(Cl)c5cc[nH]c5c4)nc3c2)CC1` (stereo not drawn) [Compound 139, 4-{2-[(4-chloro-1H-indol-6-yl)amino]-1H-1,3-benzodiazol-5-yl}cyclohexan-1-ol], which EC50 is on record?
**A.** 1000 to 5000 nM

**Q.** For `CC(C)(C)OC(=O)N1C2C=C(c3ccc4[nH]c(Nc5cc(Cl)c6cc[nH]c6c5)nc4c3)CC1CC2` (stereo not drawn) [Compound 140, tert-butyl 3-{2-[(4-chloro-1H-indol-6-yl)amino]-1H-1,3-benzodiazol-5-yl}-8-azabicyclo[3.2.1]oct-2-ene-8-carboxylate], which EC50 is on record?
**A.** 1000 to 5000 nM

**Q.** For `Clc1cc(Nc2nc3cc(C4CCCOC4)ccc3[nH]2)cc2[nH]ccc12` (stereo not drawn) [Compound 141, N-(4-chloro-1H-indol-6-yl)-5-(oxan-3-yl)-1H-1,3-benzodiazol-2-amine], which EC50 is on record?
**A.** 200 to 1000 nM

**Q.** With `FC(F)(F)C1CCC(c2ccc3[nH]c(Nc4cc(Cl)c5cc[nH]c5c4)nc3c2)CC1` (stereo not drawn) [Compound 142, N-(4-chloro-1H-indol-6-yl)-5-[4-(trifluoromethyl)cyclohexyl]-1H-1,3-benzodiazol-2-amine] as the molecule, how does the EC50 read?
**A.** 1000 to 5000 nM

**Q.** `CC1(C)CC(c2ccc3[nH]c(Nc4cc(Cl)c5cc[nH]c5c4)nc3c2)CC(C)(C)O1` [Compound 143, N-(4-chloro-1H-indol-6-yl)-5-(2,2,6,6-tetramethyloxan-4-yl)-1H-1,3-benzodiazol-2-amine] was tested. Which EC50 did it give?
**A.** 5000 to 100000 nM

**Q.** Which EC50 does the source give for `Cn1ccc(-c2ccc3[nH]c(Nc4cc(Cl)c5cc[nH]c5c4)nc3c2)n1` [Compound 144, N-(4-chloro-1H-indol-6-yl)-5-(1-methyl-1H-pyrazol-3-yl)-1H-1,3-benzodiazol-2-amine] here?
**A.** 200 to 1000 nM

**Q.** Which EC50 does the source give for `Clc1cc(Nc2nc3cc(-c4ccc(CN5CCOCC5)s4)ccc3[nH]2)cc2[nH]ccc12` [Compound 145, N-(4-chloro-1H-indol-6-yl)-5-{5-[(morpholin-4-yl)methyl]thiophen-2-yl}-1H-1,3-benzodiazol-2-amine] here?
**A.** 200 to 1000 nM

**Q.** `Clc1cc(Nc2nc3cc(-c4ccc(N5CCCC5)nc4)ccc3[nH]2)cc2[nH]ccc12` [Compound 146, N-(4-chloro-1H-indol-6-yl)-5-[6-(pyrrolidin-1-yl)pyridin-3-yl]-1H-1,3-benzodiazol-2-amine] was tested. Which EC50 did it give?
**A.** 1000 to 5000 nM

**Q.** `CN(C)CCn1cc(-c2ccc3[nH]c(Nc4cc(Cl)c5cc[nH]c5c4)nc3c2)cn1` [Compound 147, N-(4-chloro-1H-indol-6-yl)-5-{1-[2-(dimethylamino)ethyl]-1H-pyrazol-4-yl}-1H-1,3-benzodiazol-2-amine] was tested. Which EC50 did it give?
**A.** 5000 to 100000 nM

**Q.** How did the EC50 turn out when `CC(C)(C)OC(=O)NC1CCC(c2ccc3[nH]c(Nc4cc(Cl)c5cc[nH]c5c4)nc3c2)CC1` (stereo not drawn) [Compound 148, tert-butyl N-(4-{2-[(4-chloro-1H-indol-6-yl)amino]-1H-1,3-benzodiazol-5-yl}cyclohexyl)carbamate] was run?
**A.** 200 to 1000 nM

**Q.** For `N#CC1(c2ccc(-c3ccc4[nH]c(Nc5cc(Cl)c6cc[nH]c6c5)nc4c3)cc2)CC1` [Compound 149, 1-(4-{2-[(4-chloro-1H-indol-6-yl)amino]-1H-1,3-benzodiazol-5-yl}phenyl)cyclopropane-1-carbonitrile], which EC50 is on record?
**A.** 200 to 1000 nM

**Q.** How did the EC50 turn out when `Cn1nccc1-c1ccc2[nH]c(Nc3cc(Cl)c4cc[nH]c4c3)nc2c1` [Compound 150, N-(4-chloro-1H-indol-6-yl)-5-(1-methyl-1H-pyrazol-5-yl)-1H-1,3-benzodiazol-2-amine] was run?
**A.** 200 to 1000 nM

**Q.** `CC(C)(C)OC(=O)N1CCCC(c2ccc3[nH]c(Nc4cc(Cl)c5cc[nH]c5c4)nc3c2)C1` (stereo not drawn) [Compound 151, tert-butyl 3-{2-[(4-chloro-1H-indol-6-yl)amino]-1H-1,3-benzodiazol-5-yl}piperidine-1-carboxylate] was tested. Which EC50 did it give?
**A.** 200 to 1000 nM

**Q.** With `CC(=O)N1CCC(c2ccc3[nH]c(Nc4cc(Cl)c5cc[nH]c5c4)nc3c2)CC1` [Compound 152, 1-(4-{2-[(4-chloro-1H-indol-6-yl)amino]-1H-1,3-benzodiazol-5-yl}piperidin-1-yl)ethan-1-one] as the molecule, how does the EC50 read?
**A.** 1000 to 5000 nM
